Measured values taken from patent US12527835B2, “Brevican-binding peptides for brain tumor imaging” (The Brigham and Women's Hospital, Inc., priority 2018, dated 2026).

How the values were obtained:
[1] = test system: human BBB organoids; test: BBB organoid peptide permeability assay; assay type: in vitro ADME; settings: Cy5.5-labeled peptide, 10 μM, 3 hrs
Procedure: Immortalized hCMEC/D3, primary HBVP and primary human astrocytes were used for generation of BBB organoids as previously described (Cho et al., Nat Commun 8, 15623 (2017); Fadzen et al., J. Am. Chem. Soc. 139, 15628-15631 (2017)). Briefly, agarose (0.5 g) was dissolved in 50 mL of MilliQ water or PBS in a conical flask and the solution was heated in a microwave for 1-2 minutes until completely dissolved. Melted agarose was transferred into a sterile tissue culture hood and immediately poured into a 50-mL sterile basin. 50 μL of melted agarose was dispensed into each well in a 96-well plate using a multichannel pipette. The plate was set aside to allow agarose to solidify completely inside the wells for at least 15 minutes. […] Each cell type was counted using a hemocytometer, and 1,500 of each cell type were seeded into each well containing solidified agarose. […]
For peptide permeability analyses, after 48 hrs, organoids that formed successfully were pooled together into a 0.5-mL microcentrifuge tube in BBB working medium. […] The organoids were then transferred onto a thin-well chambered coverglass and imaged by confocal fluorescence microscopy. Quantification of peptide permeability was performed using the ImageJ software, where the mean fluorescence intensity of the core of each spheroid (at a depth between 50-90 μm) was measured, and then plotted on GraphPad Prism.

[2] = cited from earlier work

SMILES	influx into the core of the BBB organoids [1]	solubility of CPT itself [2]
CC(C)[C@@H](NC(=O)[C@@H](Cc1c[nH]cn1)NC(=O)CNC(=O)[C@@H](Cc1c[nH]c2ccccc12)NC(=O)[C@@H](CCCCN)NC(=O)[C@H](N)[C@H](C)O)C(=O)N[C@H](CC(N)=O)C(=O)N[C@H](CCCCN)C(N)=O [BTP-7, TKWGHVNK]	dramatic influx	–
CC[C@@]1(O)C(=O)OCc2c1cc1n(c2=O)Cc2cc3ccccc3nc2-1 [CPT, camptothecin]	–	insoluble
